Test results taken from US3932664A, “Substituted phenoxyalkyl quaternary ammonium compounds as antiarrhythemic agents” (priority 1974, dated 1976).

Legend:
[1] = test system: ouabain-induced ventricular tachycardia in dogs; test: conversion of ouabain-induced ventricular tachycardia to normal sinus rhythm in anesthetized dogs; assay type: in vivo, dog; conditions: intravenous; for mean duration of sinus rhythm: group of three dogs
Description: Ventricular tachycardia is produced in dogs in a method similar to the method of Lucchesi and Hardman (J. Pharmacol. Exptl. Therap., 132, 372, 1961) by the administration of ouabain. In such operations, a dog is anesthetized by the intravenous administration of pentobarbital sodium at a dosage rate of 30 milligrams per kilogram. A femoral artery is cannulated with polyethylene tubing for measurements of blood pressure. A femoral vein is similarly cannulated for administration of ouabain and administration of the test compound. Hypodermic needle electrodes are employed for recording electrocardiograms. In such operations, ouabain is administered intravenously by infusion at a constant rate via the cannulated femoral vein. The infusion rate is 35 micrograms of ouabain per kilogram of animal body weight per hour. Within 1 to 1.5 hours following the start of the infusion, a ventricular tachycardia is seen to develop.
After ventricular tachycardia is observed, a test compound is administered intravenously by administration of varying amounts of a composition comprising 50 milligrams of the test compound as a sterile solution in 10 milliliters of water containing 0.9 percent sodium chloride. Each dose is administered slowly over a period of 15 to 30 seconds. The compound is administered at an initial dosage rate of 0.25 milligram of test compound per kilogram of animal body weight. Blood pressure and electrocardiogram are observed for 5 minutes after administration. When a complete conversion from the arrhythmic condition to normal sinus rhythm is not observed within the 5 minute period, a second dose of 0.50 milligram of the test compound per kilogram is administered by a similar procedure and blood pressure and heartbeat are similarly observed for 5 minutes. When complete conversion of the ventricular tachycardia to normal sinus rhythm is not observed, the dosage is increased two-fold every five minutes until complete conversion is obtained. The animal is then observed and the duration of the period of normal cardiac rhythm produced by administration of the test compound is recorded as the duration of antiarrhythmic activity. The termination of the period of normal activity is marked by the reappearance of ventricular tachycardia or fibrillation as indicated by the electrocardiogram observations. The antiarrhythmic dosage of test compound sufficient to bring about a complete conversion of the cuabain-induced tachycardia, and the duration of the period of normal cardiac activity are set out below.
The procedure of Example 26 is repeated, employing the compound of Example 1, [ 2-(4-amino-2,6-dibromophenoxy)-ethyl]-dimethyl(2-methylallyl)ammoniumchloride, as a test compound. In these operations two groups of three dogs each are administered the test compound intravenously at anti-arrhythmic dosage rates of 1 and 2 milligrams per kilogram after ectopic ventricular rhythms have been established by continuous infusion of cuabain.

[2] = acute oral toxicity in mice; conditions: mouse, in vivo, single oral dose
Description: An aqueous solution of [2-(4-amino-2,6-dibromophenoxy)ethyl]dimethyl (2-methylallyl)ammonium chloride is administered orally to several groups of male and female Sprague-Dawley derived rats and male and female Swiss mice (Cox strain). The compound is administered as single oral dosages in varying amounts, and the animals are held to assess toxicity twenty-four hours after administration of the compound.

## C=C(C)C[N+](C)(C)CCOc1c(Br)cc(N)cc1Br.[Cl-] [Example 1, [2-(4-amino-2,6-dibromophenoxy)ethyl]-dimethyl(2-methylallyl)ammonium chloride]
[1]; Canis lupus familiaris, iv, dog, dose giving complete conversion of ouabain-induced tachycardia to normal sinus rhythm, read-out: Conversion Dose
  minimal effective dose: 0.5 mg/kg
[1]; dog, at conversion dose 0.5 mg/kg
  Duration (period of normal cardiac rhythm): 15 min
[1]; 1 mg/kg
  mean duration of sinus rhythm: 12.7 min
[1]; 2 mg/kg
  mean duration of sinus rhythm: 26.5 min
[1]; two groups of three dogs, 1 and 2 mg/kg
  conversion of the arrhythmias to sinus rhythm: Complete conversion of the arrhythmias to sinus rhythm is observed in all the dogs
[2]; female mice
  LD50 at 24 h: 550 mg/kg
[2]; male mice
  LD50 at 24 h: 560 mg/kg
